Assay results: US20210045385A1, “PYRIDAZINONE-SUBSTITUTED KETOXIMES AS HERBICIDES” (FMC Corporation, priority 2018, published 2021)

Tests used:
Format in all cases: in vivo
[1] = tested on: ragweed (common ragweed, Ambrosia artemisiifolia); test: Test C preemergence, visual plant response rating; conditions: Test C, 0 is no effect, 100 is complete control
Outline: (§1)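 Visual injury on a 0 (no effect) to 100 (complete control) scale versus untreated controls, scored approximately 10 d after treatment under greenhouse conditions. Treatments used surfactant-containing non-phytotoxic solvent formulations, sprayed onto loam–sand soil preemergence or onto one- to two-leaf plants 2–10 cm tall postemergence.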

kochia (Bassia scoparia) [2] = test: Test C preemergence, visual plant response rating; conditions: Test C, 0 is no effect, 100 is complete control
Outline: as §1

[3] = tested on: barnyardgrass (Echinochloa crus-galli); test: Test C preemergence, visual plant response rating; conditions: Test C, 0 is no effect, 100 is complete control
Outline: as §1

[4] = tested on: Italian ryegrass (Lolium mutiflorum); test: Test C preemergence, visual plant response rating; conditions: Test C, 0 is no effect, 100 is complete control
Outline: as §1

[5] = tested on: pigweed (Amaranthus retroflexus); test: Test C preemergence, visual plant response rating; conditions: Test C, 0 is no effect, 100 is complete control
Outline: as §1

[6] = tested on: foxtail, giant (giant foxtail, Setaria faberi); test: Test C preemergence, visual plant response rating; conditions: Test C, 0 is no effect, 100 is complete control
Outline: as §1

rice (Oryza sativa) = test: Test D flooded paddy test, visual plant response rating; conditions: 250 g ai/ha, scale 0 to 100 (0 no effect, 100 complete control), 13 to 15 d
Outline: (§2)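 Visual injury scores, 0 (no effect) to 100 (complete control), were assigned after 13 to 15 d in the greenhouse by comparison with controls. Test compounds had been added to paddy water covering soil by 3 cm at the 2-leaf stage.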

[7] = tested on: barnyardgrass (Echinochloa crus-galli); test: as above; conditions: 250 g ai/ha, scale 0 to 100 (0 no effect, 100 complete control), 13 to 15 d
Outline: as §2

[8] = tested on: duck salad (Heteranthera limosa); test: as above; conditions: 250 g ai/ha, scale 0 to 100 (0 no effect, 100 complete control), 13 to 15 d
Outline: as §2

[9] = tested on: sedge umbrella (small-flower umbrella sedge, Cyperus difformis); test: as above; conditions: 250 g ai/ha, scale 0 to 100 (0 no effect, 100 complete control), 13 to 15 d
Outline: as §2

[10] = tested on: ragweed (common ragweed, Ambrosia artemisiifolia); test: Test C postemergence, visual plant response rating
Outline: as §1

kochia (Bassia scoparia) [11] = test: Test C postemergence, visual plant response rating
Outline: as §1

[12] = tested on: wheat (Triticum aestivum); test: Test C postemergence, visual plant response rating
Outline: as §1

[13] = tested on: barnyardgrass (Echinochloa crus-galli); test: Test C postemergence, visual plant response rating
Outline: as §1

[14] = tested on: blackgrass (Alopecurus myosuroides); test: Test C postemergence, visual plant response rating
Outline: as §1

corn (Zea mays) = test: Test C postemergence, visual plant response rating
Outline: as §1

[15] = tested on: Italian ryegrass (Lolium mutiflorum); test: Test C postemergence, visual plant response rating
Outline: as §1

[16] = tested on: pigweed (Amaranthus retroflexus); test: Test C postemergence, visual plant response rating
Outline: as §1

[17] = tested on: foxtail, giant (giant foxtail, Setaria faberi); test: Test C postemergence, visual plant response rating
Outline: as §1

[18] = tested on: galium (catchweed bedstraw, Galium aparine); test: Test C postemergence, visual plant response rating
Outline: as §1

[19] = Test C, postemergence, 125 g ai/ha

Structure (SMILES) | Ragweed plant response rating (0 to 100 scale) ([1]; 31 g ai/ha) | Ragweed plant response rating (0 to 100 scale) ([1]; 125 g ai/ha) | Kochia plant response rating (0 to 100 scale) (kochia (Bassia scoparia) [2]; 31 g ai/ha) | Kochia plant response rating (0 to 100 scale) (kochia (Bassia scoparia) [2]; 125 g ai/ha) | Barnyardgrass plant response rating (0 to 100 scale) ([3]; 31 g ai/ha) | Barnyardgrass plant response rating (0 to 100 scale) ([3]; 125 g ai/ha) | Ryegrass, Italian plant response rating (0 to 100 scale) ([4]; 31 g ai/ha) | Ryegrass, Italian plant response rating (0 to 100 scale) ([4]; 125 g ai/ha) | Pigweed plant response rating (0 to 100 scale) ([5]; 31 g ai/ha) | Pigweed plant response rating (0 to 100 scale) ([5]; 125 g ai/ha) | Foxtail, Giant plant response rating (0 to 100 scale) ([6]; 31 g ai/ha) | Foxtail, Giant plant response rating (0 to 100 scale) ([6]; 125 g ai/ha) | Plant response rating, Rice (Flood) (rice (Oryza sativa)) | Plant response rating, Barnyardgrass (Flood) [7] | Plant response rating, Ducksalad (Flood) [8] | Plant response rating, Sedge, Umbrella (Flood) [9] | Ragweed plant response rating (0 to 100 scale) ([10]; Postemergence, 31 g ai/ha) | Ragweed plant response rating (0 to 100 scale) [10, 19] | Kochia plant response rating (0 to 100 scale) (kochia (Bassia scoparia) [11]; Postemergence, 31 g ai/ha) | Kochia plant response rating (0 to 100 scale) (kochia (Bassia scoparia) [11]; [19]) | also measured
C#CCO/N=C(/c1cccc(/C=C\Cl)c1)c1c(O)c(C)nn(C)c1=O [Compound 261] | 0 | 10 | 0 | 0 | 0 | 0 | 0 | 70 | 0 | 10 | 0 | 10 | 0 | 0 | 0 | 0 | 40 | 60 | 30 | 60 | Wheat plant response rating (0 to 100 scale) ([12]; Postemergence, 31 g ai/ha): 0; Wheat plant response rating (0 to 100 scale) [12, 19]: 50; Barnyardgrass plant response rating (0 to 100 scale) ([13]; Postemergence, 31 g ai/ha): 20; Barnyardgrass plant response rating (0 to 100 scale) [13, 19]: 40; Blackgrass plant response rating (0 to 100 scale) ([14]; Postemergence, 31 g ai/ha): 0; Blackgrass plant response rating (0 to 100 scale) [14, 19]: 60; Corn plant response rating (0 to 100 scale) (corn (Zea mays); Postemergence, 31 g ai/ha): 0; Corn plant response rating (0 to 100 scale) (corn (Zea mays); [19]): 10; Ryegrass, Italian plant response rating (0 to 100 scale) ([15]; Postemergence, 31 g ai/ha): 0; Ryegrass, Italian plant response rating (0 to 100 scale) [15, 19]: 60; Pigweed plant response rating (0 to 100 scale) ([16]; Postemergence, 31 g ai/ha): 50; Pigweed plant response rating (0 to 100 scale) [16, 19]: 60; Foxtail, Giant plant response rating (0 to 100 scale) ([17]; Postemergence, 31 g ai/ha): 10; Foxtail, Giant plant response rating (0 to 100 scale) [17, 19]: 50; Galium plant response rating (0 to 100 scale) ([18]; Postemergence, 31 g ai/ha): 40; Galium plant response rating (0 to 100 scale) [18, 19]: 80
C#CCO/N=C(/c1ccc(F)c(Cl)c1)c1c(O)c(C)nn(C)c1=O [Compound 229] | 0 | 0 | 0 | 0 | 0 | 30 | 20 | 90 | 10 | 40 | 10 | 30 | 0 | 0 | 0 | 0 | 10 | 20 | 0 | 0 | Wheat plant response rating (0 to 100 scale) ([12]; Postemergence, 31 g ai/ha): 30; Wheat plant response rating (0 to 100 scale) [12, 19]: 60; Barnyardgrass plant response rating (0 to 100 scale) ([13]; Postemergence, 31 g ai/ha): 0; Barnyardgrass plant response rating (0 to 100 scale) [13, 19]: 30; Blackgrass plant response rating (0 to 100 scale) ([14]; Postemergence, 31 g ai/ha): 50; Blackgrass plant response rating (0 to 100 scale) [14, 19]: 0; Corn plant response rating (0 to 100 scale) (corn (Zea mays); Postemergence, 31 g ai/ha): 0; Corn plant response rating (0 to 100 scale) (corn (Zea mays); [19]): 40; Ryegrass, Italian plant response rating (0 to 100 scale) ([15]; Postemergence, 31 g ai/ha): 40; Ryegrass, Italian plant response rating (0 to 100 scale) [15, 19]: 70; Pigweed plant response rating (0 to 100 scale) ([16]; Postemergence, 31 g ai/ha): 20; Pigweed plant response rating (0 to 100 scale) [16, 19]: 50; Foxtail, Giant plant response rating (0 to 100 scale) ([17]; Postemergence, 31 g ai/ha): 10; Foxtail, Giant plant response rating (0 to 100 scale) [17, 19]: 40; Galium plant response rating (0 to 100 scale) ([18]; Postemergence, 31 g ai/ha): 60; Galium plant response rating (0 to 100 scale) [18, 19]: 80
Cc1nn(C)c(=O)c(/C(=N/OC(C)C)c2cccc3cc(Cl)ccc23)c1O [Compound 245] | 10 | 40 | 0 | 0 | 30 | 70 | 0 | 0 | 50 | 100 | 60 | 90 | 25 | 15 | 30 | 50 | 20 | 70 | 0 | 20 | Wheat plant response rating (0 to 100 scale) ([12]; Postemergence, 31 g ai/ha): 0; Wheat plant response rating (0 to 100 scale) [12, 19]: 0; Barnyardgrass plant response rating (0 to 100 scale) ([13]; Postemergence, 31 g ai/ha): 30; Barnyardgrass plant response rating (0 to 100 scale) [13, 19]: 50; Blackgrass plant response rating (0 to 100 scale) ([14]; Postemergence, 31 g ai/ha): 0; Blackgrass plant response rating (0 to 100 scale) [14, 19]: 0; Corn plant response rating (0 to 100 scale) (corn (Zea mays); Postemergence, 31 g ai/ha): 30; Corn plant response rating (0 to 100 scale) (corn (Zea mays); [19]): 30; Ryegrass, Italian plant response rating (0 to 100 scale) ([15]; Postemergence, 31 g ai/ha): 0; Ryegrass, Italian plant response rating (0 to 100 scale) [15, 19]: 0; Pigweed plant response rating (0 to 100 scale) ([16]; Postemergence, 31 g ai/ha): 70; Pigweed plant response rating (0 to 100 scale) [16, 19]: 90; Foxtail, Giant plant response rating (0 to 100 scale) ([17]; Postemergence, 31 g ai/ha): 30; Foxtail, Giant plant response rating (0 to 100 scale) [17, 19]: 80; Galium plant response rating (0 to 100 scale) ([18]; Postemergence, 31 g ai/ha): 70; Galium plant response rating (0 to 100 scale) [18, 19]: 90
CC(C)O/N=C(/c1c(O)c(Cl)nn(C)c1=O)c1ccc(F)c2ccccc12 [Compound 209] | 90 | 90 | 0 | 40 | 50 | 80 | 10 | 30 | 20 | 100 | 80 | 100 | 0 | 0 | 50 | 80 | 90 | 90 | 10 | 40 | Wheat plant response rating (0 to 100 scale) ([12]; Postemergence, 31 g ai/ha): 0; Wheat plant response rating (0 to 100 scale) [12, 19]: 0; Barnyardgrass plant response rating (0 to 100 scale) ([13]; Postemergence, 31 g ai/ha): 50; Barnyardgrass plant response rating (0 to 100 scale) [13, 19]: 80; Blackgrass plant response rating (0 to 100 scale) ([14]; Postemergence, 31 g ai/ha): 10; Blackgrass plant response rating (0 to 100 scale) [14, 19]: 30; Corn plant response rating (0 to 100 scale) (corn (Zea mays); Postemergence, 31 g ai/ha): 10; Corn plant response rating (0 to 100 scale) (corn (Zea mays); [19]): 20; Ryegrass, Italian plant response rating (0 to 100 scale) ([15]; Postemergence, 31 g ai/ha): 10; Ryegrass, Italian plant response rating (0 to 100 scale) [15, 19]: 40; Pigweed plant response rating (0 to 100 scale) ([16]; Postemergence, 31 g ai/ha): 50; Pigweed plant response rating (0 to 100 scale) [16, 19]: 90; Foxtail, Giant plant response rating (0 to 100 scale) ([17]; Postemergence, 31 g ai/ha): 70; Foxtail, Giant plant response rating (0 to 100 scale) [17, 19]: 90; Galium plant response rating (0 to 100 scale) ([18]; Postemergence, 31 g ai/ha): 90; Galium plant response rating (0 to 100 scale) [18, 19]: 100
